In one assay the test system is DSS-colitis. In words: DSS-colitis (acute colitis) mouse model: weight loss, DAI, symptoms, crypt score. It counts as in vivo, C57BL/6 mice. To be noted: for mean time to development of loose stool / mean time to bleeding: Kaplan-Meier; for mean time to development of loose stool: non-treated 3 days; for mean time to bleeding: non-treated 5.1 days; for colon histology (cryptal structure): day 7, light microscopy; for crypt score: day 7, non-treatment group 4.8; for disease activity index (DAI): i.p. daily (CoPPIX 5 mg/kg; biliverdin 50 μmol/kg). From the text: Animals. Pathogen-free male C57BL/6 mice, 4-6 weeks of age (Taconic; C57BL/6×129 svj strain) were used in this example. Mice were kept for one week at 4 mice/cage and fed normal laboratory chow and drinking water ad libitum prior to the experiments. All mice weighed between 22.5 g and 27.7 g at the beginning of the trial. The animal experimentation protocol was reviewed and approved by the Animal Care and Use Committees of the Beth Israel Deaconess Medical Center.
Induction of Colitis. Colitis was induced by feeding mice 5% (wt/v) dextran sodium sulfate (DSS) (MW 40,000; ICN Biomedicals Inc., OH), dissolved in distilled water, for a period of 7 days. The resulting condition was termed “DSS-colitis.” Control animals were fed distilled water ad libitum. The mortality rate in the control group and the CO-treated group was 10% (2/20) and 14% (2/14), respectively. These animals were excluded from the statistical analysis. In the other groups, no mortality occurred during 7 days of 5% DSS treatment.
Experimental Reagents and Treatment Protocol. Cobalt protoporphyrin (CoPPIX), zinc protoporphyrin (ZnPPIX, Porphyrin Products, Logan, Utah) and biliverdin dihydrochloride (ICN Biomedicals Inc., OH) were dissolved in a small amount 0.2 M NaOH, subsequently adjusted to a pH of 7.4 with 1 M HCl, and diluted in 0.9% NaCl. The stock solutions (CoPPIX and ZnPPIX=1 mg/ml, biliverdin=10 mM) were aliquoted and kept at −70° C. until used. Light exposure was limited as much as possible. CoPPIX (5 mg/kg), ZnPPIX (20 mg/kg) and biliverdin (50 μmol/kg) were administered to the mice intraperitoneally (i.p.) 24 hours before induction of DSS-colitis and daily thereafter. Desferoxamine (DFO) was prepared in imidazole buffer (50 mM imidazole, 220 mM NaCl, pH 7.4). DFO was injected subcutaneously (s.c.) twice daily (125 mg/kg) or infused i.p. (130 mg/kg/day; pumping rate 0.5 μl/hour for 8 days) by miniosmotic Alzet™ pumps (Alza Corporation, Palo Alto, Calif.) (Postma et al., Exp. Parasitol. 89(3):323-30 1998). The pumps were installed i.p. 24 hours before induction of colitis. When animals were sacrificed at day 7 of DSS treatment, the pumps were removed and evaluated to determine if DFO application had taken place.
CO gas was administrated exogenously by putting animals in a CO exposure chamber (Otterbein et al., Nat. Med. 6(4):422-8, 2000). Briefly, CO at a concentration of 1% (10,000 parts per million (ppm)) in compressed air was mixed with balanced air (21% oxygen) in a stainless steel mixing cylinder before entering the exposure chamber. CO concentrations were controlled by varying the flow rates of CO in a mixing cylinder before delivery to the chamber. Because the flow rate is primarily determined by the O2 flow, only the CO flow was changed to deliver the final concentration to the exposure chamber. A CO analyzer (Interscan Corporation, Chatsworth, Calif.) was used to measure CO levels continuously in the chamber. Mice were placed in the chamber 24 hours before the induction of the colitis and were kept in the exposure chamber during the whole period of the experiment (total of 8 days). […] Animals were removed daily from the chamber to assess weight and stool.
Evaluation of Symptoms of Colitis. All animals were evaluated clinically on a daily basis. The evaluation of each animal included a measurement of weight, hemoccult positivity and examination of stool for the presence of gross blood and stool consistency. The disease activity index (DAI) was calculated by scoring percent weight loss, intestinal bleeding (no blood; occult blood=hemoccult+; gross blood) and stool consistency (normal stool=well-formed pellets; loose stool=pasty and semiformed stools; diarrhea=liquid stool that stuck to the anus) (Table 1).
The animals were sacrificed, and the whole colon from the colo-cecal junction to the anal verge was removed and gently cleaned of stool. […]

Assay [1] deals with DBA/2 islets in diabetic B6AF1 recipients. As to the kind of experiment: Allogeneic islet transplantation, graft survival and tolerance test. It counts as in vivo, mice. As for the experimental part:
Animals. Male DBA/2, B6AF1 and DBA/1 mice 6-8 week of age (Jackson) are used in the experiments. Mice were kept for 2 weeks at 4 mice/cage and fed normal laboratory chow before using for the experiment.
Treatment protocol. Recipients were rendered diabetic using streptozotocin (STZ, 225 mg/kg). Five days after STZ administration, animals with two consecutive blood glucose levels exceeding 350 mg/dl are used as recipients. Islets (500) are transplanted under the kidney capsule of the recipients.
Reagents. Cobalt protoporphyrin (CoPPIX, Porphyrin Products, Logan, Utah), biliverdin dihydrochloride and bilirubin (ICN Biomedicals Inc., OH) were dissolved in a small amount of 0.2 M NaOH, subsequently adjusted to a pH of 7.4 with 1 M HCl, and diluted in 1×PBS. The stock solutions (CoPPIX=2 mg/ml, biliverdin=3.2 mg/ml, bilirubin=0.5 mg/ml) were aliquoted and kept at −70° C. until used. Light exposure was limited as much as possible.
Induction of HO-1/Administration of biliverdin/bilirubin. When given to the donor, CoPPIX (20 mg/kg) was given 24 hours before islet isolation to induce HO-1 expression. To verify HO-1 expression in different organs after CoPP treatment, tissue samples are collected 24 hours after treatment and snap frozen in liquid nitrogen. Immunohistological analysis of HO-1 expression is performed using an anti-HO-1 antibody. CoPPIX (20 mg/kg) was administrated to the recipient intraperitoneally (i.p.) on day-1, 1, 3, 5 and 7. Biliverdin (50 μmol/kg) or bilirubin (8.5 μmol/kg) was given intraperitoneally to the donor one hour before islet isolation. For the recipient, biliverdin (50 μmol/kg) or bilirubin ([…]) was administered intraperitoneally either daily or twice per day from day-1 until day 13. No further treatment was given afterwards.
Measurement of Glucose level. Glucose levels were tested twice weekly after transplantation. Glucose levels of <200 mg/dl were considered normoglycemic. Grafts were considered rejected when two consecutive glucose levels were >300 mg/dl.
Tolerance test. The first graft was removed from a number of animals that had islets surviving long-term (longer than 100 days) by doing a nephrectomy. Islets syngeneic with the original donor were transplanted under the contralateral kidney capsule without further treatment. If those second transplanted islets also survived longer than 100 days without further treatment, the recipients were considered tolerant.

Where a name gives a salt, the structure may show the parent alone.

Consider `C=CC1=C(C)/C(=C/C2=NC(=C\c3[nH]c(/C=C4\NC(=O)C(C)=C4C=C)c(C)c3CCC(=O)O)/C(CCC(=O)O)=C2C)NC1=O` [biliverdin, biliverdin dihydrochloride], for which, in the assay with DSS-colitis, the “mean time to development of loose stool” value was found to be 4.4 days, the “mean time to bleeding” value is given as 6.2 days, the “colon histology (cryptal structure)” value was “preserved cryptal structure” and the crypt score came out at 3. Further, in the assay on DSS-colitis (day 7 of DSS), the “disease activity index (DAI)” value was determined as 3.3. Moreover, the “mean total percent body weight loss” value in the assay on DSS-colitis (day 7 of DSS, i.p. daily from 24 hours before DSS (CoPPIX 5 mg/kg; biliverdin 50 μmol/kg)) is listed as 16.5%. Besides, in assay [1] (long-term survival animals), the antigen specific tolerance result was “seen in some”. In assay [1] (treatment of the recipient only), the long-term surviving islets result is recorded as “significant percentage of long-term surviving islets”.
For the compound `C=CC1=C(C)c2cc3[n-]c(cc4nc(cc5[n-]c(cc1n2)c(C)c5CCC(=O)[O-])C(CCC(=O)[O-])=C4C)c(C)c3C=C.[Co+2].[H+].[H+]` [CoPP, Cobalt protoporphyrin], in the assay on DSS-colitis, the “mean time to development of loose stool” value is given as 4.6 days; the “mean time to bleeding” value was 6.9 days; the “colon histology (cryptal structure)” value was “remaining cryptal structures and intact epithelial surface”; the crypt score is given as 2.6. Moreover, the “difference in DAI between CoPP-treated and untreated groups” value (“difference” for short) with DSS-colitis (day 2) amounted to 0.4. In addition, in the assay on DSS-colitis (day 5 (maximum protection)), the “difference” value is 1.64. Besides, the “disease activity index (DAI)” value with DSS-colitis (day 7 of DSS) is on record as 2.8. The “difference” value with DSS-colitis (toward the end of the 7 days) stood at 1.04. In assay [1] (CoPP 20 mg/kg, donor one day before, recipient days −1, 1, 3, 5 and 7), the islet allograft survival entry is on record as “prolongation of survival in general but also to some islets surviving long-term”. Further, in assay [1] (CoPP, HO-1 induced only in the donor), the islet allograft survival result was “prolonged survival and function of the islets in the recipient but also to an occasional long-term surviving graft”. Also, in assay [1] (all five animals, no further treatment), the “acceptance of 2nd graft (DBA/2 islets) in tolerance test” value is over 100 days. In addition, the “third party grafts in tolerance test” value in assay [1] (n=3) is listed as “rejected rapidly”.

For the origin of these results see US8097585B2, “Methods of treating inflammation by administration of heme oxygenase-1 and products of heme degradation” (priority 2002, dated 2012).
